Calls of active or inactive are those of the source. No cut-off for these calls is given here.
What was measured:
[1] = target: P2X2/P2X3 heterotrimeric receptor (Homo sapiens) (UniProt Q9UBL9+P56373); experiment: Antagonist activity against human P2X2/3 receptor expressed in CHOK1 cells assessed as inhibition of alpha,beta-meATP-induced calcium response incubated for 20 mins by Fluo-3AM dye based FLIPR assay; format: functional, cell-based; settings: CHO-K1
[2] = target: T1, P2X purinoceptor 3 (Rattus norvegicus) (UniProt P49654); experiment: Antagonist activity against rat P2X3 receptor expressed in CHOK1 cells assessed as inhibition of alpha,beta-meATP-induced calcium response incubated for 20 mins by Fluo-3AM dye based FLIPR assay; format: functional, cell-based; settings: CHO-K1
T1 sequence (whole entry): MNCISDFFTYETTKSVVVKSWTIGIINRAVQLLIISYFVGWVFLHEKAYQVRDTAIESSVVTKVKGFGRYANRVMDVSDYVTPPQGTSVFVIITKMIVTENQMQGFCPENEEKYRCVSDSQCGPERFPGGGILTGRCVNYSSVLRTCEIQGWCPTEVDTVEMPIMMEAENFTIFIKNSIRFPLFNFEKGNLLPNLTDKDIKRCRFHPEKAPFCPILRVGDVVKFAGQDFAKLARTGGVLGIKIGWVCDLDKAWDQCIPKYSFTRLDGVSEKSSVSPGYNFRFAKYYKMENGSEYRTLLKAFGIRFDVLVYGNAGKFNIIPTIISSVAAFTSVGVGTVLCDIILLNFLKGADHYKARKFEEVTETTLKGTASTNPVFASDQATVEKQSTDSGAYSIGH

| SMILES | inhibition [1] | inhibition [2] |
| --- | --- | --- |
| COc1cc(C(C)C)c(Oc2cnc(N)nc2N)cc1C#Cc1cncn1C | Active | Active |
| CC#Cc1cc(Oc2cnc(N)nc2N)c(C(C)C)cc1F | Active | Active |
| COc1cc(C(C)C)c(Oc2cnc(N)nc2N)cc1C#Cc1ccccn1 | Active | Active |
| C#Cc1cc(Oc2cnc(NCCCO)nc2N)c(C(C)C)cc1OC | Active | Active |
| C#Cc1cc(Oc2cnc(NCCN3CCCCC3)nc2N)c(C(C)C)cc1OC | Active | Active |
| C#Cc1ccc(C(C)C)c(Oc2cnc(N)nc2N)c1 | Active | Active |
| C#Cc1cc(Oc2cnc(NCC(C)O)nc2N)c(C(C)C)cc1OC (configuration not stated) | Active | Active |
| COc1cc(C(C)C)c(Oc2cnc(N)nc2N)cc1C#Cc1ccncc1 | Active | Active |
| C#Cc1cc(Oc2cnc(NC(C)CO)nc2N)c(C(C)C)cc1OC (configuration not stated) | Active | Active |
| C#Cc1cc(Oc2cnc(N)nc2N)c(C(C)C)cc1OCc1cccc(F)c1 | Active | Active |
| COc1cc(C(C)C)c(Oc2cnc(N)nc2N)cc1C#Cc1ccccc1 | Active | Active |
| COc1cc(C(C)C)c(Oc2cnc(N)nc2N)cc1C#Cc1cccnc1 | Active | Active |
| C#Cc1cc(Oc2cnc(NC(CO)CO)nc2N)c(C(C)C)cc1OC | Active | Active |
| C#Cc1cc(Oc2cnc(NCCN3CCOCC3)nc2N)c(C(C)C)cc1OC | Active | Active |
| COc1cc(C(C)C)c(Oc2cnc(N)nc2N)cc1C#Cc1ccsc1 | Active | Active |
| C#Cc1cc(Oc2cnc(NCCN(C)C)nc2N)c(C(C)C)cc1OC | Active | Active |
| C#Cc1cc(Oc2cnc(NC3CCN(S(C)(=O)=O)CC3)nc2N)c(C(C)C)cc1OC | Active | Active |
| C#Cc1ccc(I)c(Oc2cnc(N)nc2N)c1 | Active | Active |
| C#Cc1cc(Oc2cnc(NC3CCOCC3)nc2N)c(C(C)C)cc1OC | Active | Active |

The remaining lines, values ahead:

| inhibition [1] | inhibition [2] | SMILES |
| --- | --- | --- |
| Active | Active | C#Cc1cc(Oc2cnc(N)nc2N)c(C(C)C)cc1OC |
| Active | Active | COc1cc(C(C)C)c(Oc2cnc(N)nc2N)cc1C#CC1CC1 |
| Active | Active | CNCC#Cc1cc(Oc2cnc(N)nc2N)c(C(C)C)cc1OC |
| Active | Active | C#Cc1cc(Oc2cnc(N)nc2N)c(C(C)C)cc1Cl |
| Active | Active | C#Cc1cc(OC)c(I)cc1Oc1cnc(N)nc1N |
| Active | Active | C#Cc1cc(Oc2cnc(N)nc2N)c(C#C)cc1OC |
| Active | Active | C#Cc1cc(Oc2cnc(N)nc2N)c(C(C)C)cc1F |
| Active | Active | COc1cc(C(C)C)c(Oc2cnc(N)nc2N)cc1C#CCCCO |
| Active | Active | COc1cc(C(C)C)c(Oc2cnc(N)nc2N)cc1C#CCCO |
| Active | Active | CC#Cc1cc(Oc2cnc(N)nc2N)c(C(C)C)cc1OC |
| Active | Active | COc1cc(C(C)C)c(Oc2cnc(N)nc2N)cc1C#C[Si](C)(C)C |
| Active | Active | C#Cc1ccc(C#C)c(Oc2cnc(N)nc2N)c1 |
| Active | Active | C#Cc1cc(Cc2cnc(N)nc2N)c(C(C)C)cc1OC |
| Active | Active | COc1cc(I)cc(Oc2cnc(N)nc2N)c1C(C)C |
| Active | Active | C#Cc1cc(Oc2cnc(NCCO)nc2N)c(C(C)C)cc1OC |
| Active | Active | COc1cc(C(C)C)c(Oc2cnc(N)nc2N)cc1C#CCO |
| Active | Active | COc1cc(C(C)C)c(Oc2cnc(N)nc2N)cc1C#CCCC#N |
| Active | Active | C#Cc1cc(Oc2cnc(N)nc2N)c(C(C)C)cc1OCCO |
| Active | Active | CCCC#Cc1cc(Oc2cnc(N)nc2N)c(C(C)C)cc1OC |
| Active | Active | C#Cc1cc(OC)c(C(C)C)c(Oc2cnc(N)nc2N)c1 |
| Active | Active | COCC#Cc1cc(Oc2cnc(N)nc2N)c(C(C)C)cc1OC |
| Active | Active | C#Cc1cc(Oc2cnc(N)nc2N)c(CC)cc1OC |

Source: ChEMBL document CHEMBL3714730, “Diaminopyrimidines as P2X3 and P2X2/3 modulators” (2009)
